Results on 1 molecule are retold here after paper PMC8453848, “Effect of GLPG1205, a GPR84 Modulator, on CYP2C9, CYP2C19, and CYP1A2 Enzymes: In Vitro and Phase 1 Studies” (Clinical Pharmacology in Drug Development, 2021).

Molecules are shown by their SMILES. Several values for one entry are separate records, joined by “and”; a condition that tells them apart may be missing. Identical values can stand only once. Like-named read-outs stand apart in the source and are kept apart here. A value given as a limit tells only on which side of the number the result lay.

Data set [1] in a line: Phase 1 drug-drug interaction study: plasma PK of GLPG1205. It counts as in vivo, human. The following applies: for AUC: 100 mg. On the procedure: The protein precipitated mixture was centrifuged at approximately 14 000 g for 15 minutes at room temperature. The clear supernatant was diluted with dilution solvent (water with 0.05% of trifluoroacetic acid) and then transferred into LC-MS plates. […] Chromatographic separation was performed on a Kinetex C18 column (50 x 3.0 mm, 2.6 µm from Phenomenex, Torrance, CA, USA) set at 40°C by using a Nexera high performance liquid chromatography (HPLC) system (Shimadzu, Kyoto, Japan) in isocratic elution mode.

In data set [2] the target is CYP2C9 (Homo sapiens, UniProt P11712). The data set can be described thus: CYP2C9 inhibition, tolbutamide methylhydroxylase assay in human liver microsomes. The data set is classed as in vitro ADME. Also noted: from tissue; host or cells: in vivo, 14 healthy male subjects. The settings on record: for IC50: estimated. On the procedure: Inhibition of the biotransformation of CYP‐specific substrates by GLPG1205 was studied using human liver microsomes. Incubation was performed at 37°C with the following conditions: n = 3 for all assays; 0.1 M phosphate buffer (pH 7.4), the cofactor nicotinamide adenine dinucleotide phosphate (NADPH) incubated at 2 mM, the CYP‐specific substrate incubated at 1 nonsaturating concentration, and GLPG1205. Additional incubation was performed with (1) a 30‐minute preincubation step of GLPG1205 with microsomes before the addition of the cofactor NADPH and CYP substrate; and (2) a 30‐minute preincubation step of GLPG1205 with microsomes and the cofactor NADPH, before the addition of the CYP substrate. […] The CYP‐specific substrates were incubated per the above conditions at the following concentrations: tolbutamide, 200 μM, CYP2C9 substrate; S‐mephenytoin, 60 μM, CYP2C19 substrate; phenacetin, 40 μM, CYP1A2 substrate.
Further details of the assays used for each CYP substrate are reported in the Supplemental Methods. Metabolites of the CYP‐specific substrates (acetaminophen for CYP1A2, hydroxytolbutamide for CYP2C9, hydroxymephenytoin for CYP2C19) were quantified using LC‐MS/MS.
Enzymatic activity in the presence of GLPG1205 was expressed as a percentage of the control activity obtained with the vehicle only (ie, without GLPG1205 or reference inhibitor). Decreases in activity of less than 20% were not considered clinically relevant.
Protocol for CYP Inhibition of the biotransformation of CYP-specific substrates by GLPG1205 was studied using human liver microsomes.^7 Incubations were performed at 37°C with the following conditions: n = 3 for all assays; 0.1 M phosphate buffer pH 7.4; the cofactor β-nicotinamide adenine dinucleotide phosphate (NADPH) incubated at 2 mM; the CYP-specific substrate incubated at one non-saturating concentration; and GLPG1205. Additional incubations were performed with: 1) a 30-minute preincubation step of GLPG1205 with microsomes before addition of the cofactor NADPH and CYP substrate; and 2) a 30-minute preincubation step of GLPG1205 with microsomes and the cofactor NADPH, before addition of the CYP substrate.
The CYP-specific substrates were incubated at the following conditions: tolbutamide (200 µM; CYP2C9); S-mephenytoin (60 µM; CYP2C19); phenacetin (40 µM; CYP1A2).^8-10 Reference inhibitors (as detailed in the previous section) were incubated in parallel. […]
A 2-fold dilution in D9-OH-tolbutamide at 1 µM in water with 0.1% formic acid was applied to the supernatants and then analysis was performed by LC-MS/MS with chromatographic separation. […] The quantification of the metabolite, hydroxytolbutamide, was performed in MRM mode using the 287.1 to 89.2 transition. […]

Chain of CYP2C9 (P11712 whole entry): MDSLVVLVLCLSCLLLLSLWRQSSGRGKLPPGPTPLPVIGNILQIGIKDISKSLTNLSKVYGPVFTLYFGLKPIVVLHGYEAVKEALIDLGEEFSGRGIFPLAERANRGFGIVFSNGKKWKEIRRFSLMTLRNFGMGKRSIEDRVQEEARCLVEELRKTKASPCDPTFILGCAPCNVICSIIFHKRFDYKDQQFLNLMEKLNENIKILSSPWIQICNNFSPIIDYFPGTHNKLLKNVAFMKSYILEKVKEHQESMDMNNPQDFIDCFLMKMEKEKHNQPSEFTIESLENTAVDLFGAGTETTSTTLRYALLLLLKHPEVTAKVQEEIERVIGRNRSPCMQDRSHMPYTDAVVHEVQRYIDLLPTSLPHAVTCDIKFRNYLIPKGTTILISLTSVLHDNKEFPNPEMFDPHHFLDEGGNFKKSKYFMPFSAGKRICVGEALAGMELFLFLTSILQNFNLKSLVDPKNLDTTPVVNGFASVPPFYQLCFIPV

Turning to `O=c1nc(OC[C@@H]2COCCO2)cc2n1CCc1cc(C#CC3CC3)ccc1-2` [GLPG1205, 9‐cyclopropylethynyl‐2‐[(S)‐1‐(1,4)dioxan‐2‐ylmethoxy]‐6,7‐dihydropyrimido[6,1‐a]isoquinolin‐4‐one], in data set [1] (GLPG1205 100 mg once a day, trough plasma concentrations), the “day by which steady state was reached” value is no more than 9 days. For the same molecule, the AUC in data set [1] (male, human, plasma, oral, day 13, GLPG1205 100 mg once a day, n = 5, arithmetic mean (CV%), read-out: AUC0‐inf) was 373 µg·h/mL; in data set [1] (male, human, plasma, oral, day 13, GLPG1205 100 mg once a day, n = 14, arithmetic mean (CV%), read-out: AUC0‐t) it was 395 µg·h/mL. Besides, in data set [1] (male, human, plasma, oral, day 13, GLPG1205 100 mg once a day, n = 14, arithmetic mean (CV%)), the Cmax came out at 5010 ng/mL. For the same molecule, the half-life in data set [1] (male, human, plasma, oral, day 13, GLPG1205 100 mg once a day, n = 14, arithmetic mean (CV%), read-out: t1/2, λz (converted)) is 74.1 h. This molecule also registered a tmax in data set [1] (male, human, plasma, oral, day 13, GLPG1205 100 mg once a day, n = 14, median (min‐max)) of 2 h. Also, the “inhibition of CYP2C9 in words” value in data set [2] (GLPG1205 50‐100 μM) was “moderate and reversible”. For the same molecule, the IC50 was ~50 µM and ≥ 50 µM in data set [2] (human liver microsomes, read-out: IC50 for inhibition of CYP2C9); no less than 49.9 µM in data set [2] (equivalent of ≥50 μM, read-out: IC50 for inhibition of CYP2C9, equivalent). In data set [2] (human, liver microsomes, pH 7.4, probe tolbutamide 200 µM, GLPG1205 50‐100 μM without preincubation, tolbutamide 200 μM), this molecule registered an inhibition at 20 min of 49 to 56.9%.
